The subject of assay [1] is retinal lesions. Put plainly: Retinal lesion size by retinal photography in subjects having vitreomacular traction (VMT). In kind it is in vivo, human. The text has this: As used herein, the terms “units of diameter” and units made in reference to lesion size or diameter refer to units of diameter of the posterior pole of an eye, which measures ten units in diameter between the vascular arcades. A lesion can be larger than 19 units.
Diagnosis of vitreomacular traction (VMT): VMT can be symptomatic or asymptomatic. Complaints of reduced or distorted vision may or may not be reported by the subject. Measurement of visual acuity (VA) may or may not be normal or reduced in one or both eyes. Measurement for distortion on an Amsler grid may or may not show distortion in one or both eyes. Retinal photography may show signs of VMT in the original color composite image (e.g., upper left photo in four panel photo of FIG. 1A). Further analysis of the choroid (e.g., upper right photo in four panel photo of FIG. 1A), the retina (e.g., lower left photo in four panel photo of FIG. 1A), and the retinal nerve fibre layer (RNFL) (e.g., lower right photo in four panel photo of FIG. 1A), may reveal puckering, fibrosis, lamellar splitting, partial lamellar holes, pseudo macular holes, bulging and/or edema in the choroid, retinal and/or RNFL images. Further analysis with “3-D” images of the choroid, retina and RNFL layers may show elevations diagnostic of VMT, such as, for example, the presence, severity and/or size of puckering, partial lamellar holes, macular holes, bulging or edema. Further, “3-D” images can be useful for determining which layers of the eye tissue are affected by VMT.
Ocular imaging: retinal photographs were taken using a Canon CR-1 Digital Retinal Camera and analyzed using EyeScape Digital Imaging Software, version 7.5.5.
The settings used for taking retinal photographs were such that optimal contrast and brightness for each subject was achieved. Most retinal photographs were taken with a dilated pupil. Some subjects have naturally very large pupils. In these cases, pupil dilation may not have been required to obtain sufficient images. The Canon CR-1 has a setting for small pupils that was used as required.
Data were collected from 40 subjects having symptomatic VMT over a period of 4.5 years.
Subjects were treated daily with lutein and zeaxanthin as described in table 1.

In assay [2] the test system is retinal lesions. The assay is described as above. The conditions noted are these: Case 1, lutein (10 mg) every other day, four months. In kind it is in vivo, human.
Setting [3] is: Lutein 5 mg, zeaxanthin 0 mg, case 31.
Setting [4] is: Lutein 18 mg, zeaxanthin 0 mg, case 13.
The mark [5] stands for this setting: Lutein 20 mg, zeaxanthin 0 mg, case 2.
Setting [6] is: Lutein 0 mg, zeaxanthin 1 mg, case 27.

For `CC1=C[C@H](O)CC(C)(C)[C@H]1/C=C/C(C)=C/C=C/C(C)=C/C=C/C=C(C)/C=C/C=C(C)/C=C/C1=C(C)C[C@@H](O)CC1(C)C` [lutein], the “OD lesion (units)” value in the assay with retinal lesions [1] (setting [3]), in the assay on retinal lesions [1] (setting [4]) and in the assay with retinal lesions [1] (setting [5]) was 0 units throughout. Further, the results for the “OS lesion (units)” value with retinal lesions [1] (setting [3]), in the assay on retinal lesions [1] (setting [4]) and with retinal lesions [1] (setting [5]) were 0.5 units, 0 units and 3 units, respectively. Moreover, the “ERM OD size after treatment” value in the assay with retinal lesions [2] (from 1.5 units) was found to be 0.5 units. The “OS macular pucker size after treatment” value with retinal lesions [2] (from 6.5 units) was found to be 5.0 units.

Turning to `CC1=C(/C=C/C(C)=C/C=C/C(C)=C/C=C/C=C(C)/C=C/C=C(C)/C=C/C2=C(C)C[C@@H](O)CC2(C)C)C(C)(C)C[C@H](O)C1` [zeaxanthin], in the assay with retinal lesions [1] (setting [6]), the “OD lesion (units)” value is 0.5 units and the “OS lesion (units)” value is given as 0.5 units.

The values are drawn from US20140186302A1, “Nutritional Formulations and Method for Treating Diseases” (priority 2012, published 2014).
